Laboratory results reported in ChEMBL document CHEMBL4673380, “Novel Pyrimidinones as SHP2 Antagonists for Treating Cancer” (ACS Med Chem Lett, 2021).

target: T1, Tyrosine-protein phosphatase non-receptor type 11 (Homo sapiens, UniProt Q06124); experiment: Antagonist activity at SHP2 in human KYSE520 cells assessed as inhibition of ERK1/2 phosphorylation incubated for 2 hrs; format: cell-based
T1 sequence (Q06124 whole entry): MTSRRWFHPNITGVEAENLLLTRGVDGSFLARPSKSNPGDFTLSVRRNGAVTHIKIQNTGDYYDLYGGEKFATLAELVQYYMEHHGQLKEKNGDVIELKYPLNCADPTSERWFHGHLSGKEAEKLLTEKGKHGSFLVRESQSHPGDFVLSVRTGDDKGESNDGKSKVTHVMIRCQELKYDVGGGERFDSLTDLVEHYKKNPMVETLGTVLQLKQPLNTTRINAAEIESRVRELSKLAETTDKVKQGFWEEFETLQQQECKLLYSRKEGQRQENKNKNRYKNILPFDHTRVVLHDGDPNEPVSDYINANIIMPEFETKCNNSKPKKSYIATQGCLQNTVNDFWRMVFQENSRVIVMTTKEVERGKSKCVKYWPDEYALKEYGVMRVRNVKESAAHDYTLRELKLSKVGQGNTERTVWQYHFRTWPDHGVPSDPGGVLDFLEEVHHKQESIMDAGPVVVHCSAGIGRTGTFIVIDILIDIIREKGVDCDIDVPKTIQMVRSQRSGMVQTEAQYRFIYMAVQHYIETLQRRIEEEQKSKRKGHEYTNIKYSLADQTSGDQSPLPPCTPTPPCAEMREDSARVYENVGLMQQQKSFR

| Structure (SMILES) | IC50 [nM] |
| --- | --- |
| Cc1c(F)ccc(-n2c(C)nc(N3CCC4(CC3)Cc3ccccc3[C@H]4N)c(C)c2=O)c1Cl | 7 |
| Cc1c(N2CCC3(CC2)Cc2ccccc2[C@H]3N)nc(C)n(-c2cccc(Cl)c2Cl)c1=O | 2 |
| Cc1c(N2CCC3(CC2)Cc2ncccc2[C@@H]3N)nc(C)n(-c2cccc(Cl)c2Cl)c1=O | 5 |
| Cc1c(N2CCC3(CC2)Oc2ccccc2[C@H]3N)nc(C)n(-c2cccc(Cl)c2Cl)c1=O | 6.6 |
| Cc1c(N2CCC3(CC2)Cc2ccccc2[C@H]3N)nc(C)n(-c2ccc(F)c(Cl)c2Cl)c1=O | 4 |
| Cc1nc(N2CCC3(CC2)Cc2ccccc2[C@H]3N)cc(=O)n1-c1cccc(Cl)c1Cl | 5 |

target: T1, Tyrosine-protein phosphatase non-receptor type 11; experiment: Antagonist activity at recombinant human N-terminal His6-tagged full length SHP2 expressed in Escherichia coli using DiFMUP as substrate measured after 60 mins in presence of IRS1-2pY peptide by fluorescence assay

| Structure (SMILES) | IC50 [nM] |
| --- | --- |
| Cc1c(N2CCC3(CC2)Cc2ncccc2[C@@H]3N)nc(C)n(-c2cccc(Cl)c2Cl)c1=O | 1 |
